Data: patent publication US11945826B2, “Hydroxypyridoxazepines as NRF2 activators” (GLAXOSMITHKLINE INTELLECTUAL PROPERTY DEVELOPMENT LIMITED, priority 2019, dated 2024)

Columns and labels:
[1] = test system: Nrf2 (NQO1 activity in BEAS-2B cells); assay: BEAS-2B NQO1 MTT Assay; assay type: cell-based; conditions: Homo sapiens, 48 hours, NQO1 specific activity induction, read-out: EC50
Text: NAD(P)H:quinone oxidoreductase 1 (NQO1), also called DT diaphorase, is a homodimeric FAD-containing enzyme that catalyzes obligatory NAD(P)H-dependent two-electron reductions of quinones and protects cells against the toxic and neoplastic effects of free radicals and reactive oxygen species arising from one-electron reductions. The transcription of NQO1 is finely regulated by Nrf2, and thus NQO1 activity is a good marker for Nrf2 activation. On day one, frozen BEAS-2B cells (ATCC) were thawed in a water bath, counted, and re-suspended at a concentration of 250,000 cells/mL. Fifty microliters of cells were plated in 384 well black clear-bottomed plates. Plates were incubated at 37° C., 5% CO2 overnight. On day two, plates were centrifuged and 50 nL of compound or controls were added to the cells. Plates were then incubated at 37° C., 5% CO2 for 48 hours. On day four, medium was aspirated from the plate and crude cell lysates were made by adding 13 μL of 1× Cell Signalling Technologies lysis buffer with 1 Complete, Mini, EDTA-free Protease Inhibitor Tablet (Roche) for each 10 mL of lysis buffer. After lysis plates were incubated for 20 minutes at room temperature. Two microliters of lysate were removed for use in Cell Titer Glo assay (Promega) and MTT cocktail was prepared (Prochaska et. al. 1998) for measurement of NQO1 activity. Fifty microliters of MTT cocktail was added to each well, plate was centrifuged, and analyzed on an Envision plate reader (Perkin Elmer) using Absorbance 570 nm label for 30 minutes. Product formation was measured kinetically and the pEC50 of NQO1 specific activity induction was calculated by plotting the change in absorbance (Delta OD/min) versus the log of compound concentration followed by 3-parameter fitting.
EC50s<1 nM (+++++), EC50s 1 nM-10 nM (++++), EC50s 10 nM-100 nM (+++), EC50s 100 nM-1 μM (++), EC50s 1 μM-10 μM (+).

murine TAC model = assay: Mouse Transverse Aortic Constriction (TAC) Left Ventricular Pressure Overload Model; assay type: in vivo, C57BLK/6J mice; conditions: 10-week mouse TAC, Example 1 at 1, 3, 10 mg/kg/d, Example B at 100 mg/kg/d
Text: Male C57BLK/6J mice (10-12 weeks old) were individually housed and acclimated to a standard powdered rodent diet for 1-3 days. Water was offered ad libitum throughout the study. Mice were initially anesthetized in a chamber using an 3% isoflurane with oxygen (1.0 L/min), and then maintained at 1.5% via nose cone (without intubation). A small incision (˜5 mm) was made just left of midline and just above the rib cage at the level of the suprasternal notch. The muscle tissue was retracted to expose the area above the pleural cavity. The lobes of the thymus were separated and retracted to expose the aortic arch. Fine surgical forceps with blunted tips were used to expose a region above and below the aorta. A micro blunt hook tied with 7-0 silk surgical suture was looped under the aorta and the suture pulled through. The suture was tied-off against a small piece of blunted 27 G needle and the needle was then removed creating the aortic constriction (a 60-70% constriction of the lumen). The incision was closed using 6-0 silk suture for the muscle layer, then the skin with Medbond. The sham procedure was identical without ligation of aorta. Depending on the individual study designs, drug administration began either on the day of surgery, or 1-2 weeks after surgery (detailed in figure legends) and continued until the end of study. Compounds were administered in the mouse chow unless otherwise noted in FIG. 12 legends. TAC study duration was either 6 weeks or 10 weeks in duration. All TAC study endpoints were collected at the end of study. Following heart dissections, samples were either snap frozen in liquid nitrogen and stored at −80° C. or placed in 10% neutral buffered formalin until analysis.
Echocardiography: For mouse TAC studies, echocardiography was performed on a Vevo 2100 high frequency imaging system. Animals were anesthetized with 2-3% isoflurane and sedation maintained with 1% isoflurane with animals on a heating pad. B-mode imaging of three cardiac cycles was used to assess ejection fraction (EF), end diastolic volume (EDV), end systolic volume (ESV), LV mass, and heart rate. ECG was used to measure heart rate during the echocardiography procedure.
NADPH dehydrogenase [quinone]-1 (NQO1) activity: Left ventricular (LV) tissue NQO1 activity was determined using an NQO1 assay kit per manufacturer's protocol (Abcam, Cambridge MA)
The KEAP1 blockers/Nrf2 activators, (R)-3-(1,4-dimethyl-1H-benzo[d][1,2,3]triazol-5-yl)-3-(3-(((R)-2-ethyl-7-hydroxy-2,3-dihydropyrido[2,3-f][1,4]oxazepin-4(5H)-yl)methyl)-4-methylphenyl)propanoic acid, hydrochloride, or a tautomer thereof (Example 1) (in dose-response) and (S)-3-(1,4-dimethyl-1H-benzo[d][1,2,3]triazol-5-yl)-3-(3-(((R)-2-ethyl-2,3-dihydropyrido[3,4-f][1,4]oxazepin-4(5H)-yl)methyl)-4-methylphenyl)-2,2-dimethylpropanoic acid (Example B) were evaluated in a 10-week mouse TAC model of severe hemodynamic stress.
FIG. 12 depicts the effect of the KEAP1-kelch domain blockers/Nrf2 activators (R)-3-(1,4-dimethyl-1H-benzo[d][1,2,3]triazol-5-yl)-3-(3-(((R)-2-ethyl-7-hydroxy-2,3-dihydropyrido[2,3-f][1,4]oxazepin-4(5H)-yl)methyl)-4-methylphenyl)propanoic acid, hydrochloride, or a tautomer thereof (Compound of Example 1) and (S)-3-(1,4-dimethyl-1H-benzo[d][1,2,3]triazol-5-yl)-3-(3-(((R)-2-ethyl-2,3-dihydropyrido[3,4-f][1,4]oxazepin-4(5H)-yl)methyl)-4-methylphenyl)-2,2-dimethylpropanoic acid (Compound B) on cardiac function, remodeling, and NQO1 enzyme activity in the murine 10-week TAC model. All compounds were dosed in chow beginning 2-weeks after TAC. […]

With `Cc1ccc([C@@H](c2ccc3c(nnn3C)c2C)C(C)(C)C(=O)O)cc1CN1Cc2nc(O)ccc2O[C@@H](C)C1` [Example 23, (S)-3-(1,4-dimethyl-1H-benzo[d][1,2,3]triazol-5-yl)-3-(3-(((S)-7-hydroxy-2-methyl-2,3-dihydropyrido[2,3-f][1,4]oxazepin-4(5H)-yl)methyl)-4-methylphenyl)-2,2-dimethylpropanoic acid] as the molecule, how does the EC50 [1] read?
Its EC50 is 10 to 100 nM.

How did the EC50 [1] turn out when `Cc1ccc([C@@H](c2ccc3c(nnn3C)c2C)C(C)(C)C(=O)O)cc1CN1CCOc2ccc(O)nc2C1` [Example 24, (S)-3-(1,4-dimethyl-1H-benzo[d][1,2,3]triazol-5-yl)-3-(3-((7-hydroxy-2,3-dihydropyrido[2,3-f][1,4]oxazepin-4(5H)-yl)methyl)-4-methylphenyl)-2,2-dimethylpropanoic acid] was run?
Its EC50 is 10 to 100 nM.

Which EC50 [1] does the source give for `Cc1ccc([C@H](CC(=O)O)c2ccc3c(nnn3C)c2C)cc1CN1Cc2nc(O)ccc2O[C@H](C(F)(F)F)C1` [Example 25, (S)-3-(1,4-dimethyl-1H-benzo[d][1,2,3]triazol-5-yl)-3-(3-(((S)-7-hydroxy-2-(trifluoromethyl)-2,3-dihydropyrido[2,3-f][1,4]oxazepin-4(5H)-yl)methyl)-4-methylphenyl)propanoic acid] here?
The EC50 was 10 to 100 nM.

For `CC[C@]1(C)CN(Cc2cc([C@@H](CC(=O)O)c3ccc4c(nnn4C)c3C)ccc2C)Cc2nc(O)ccc2O1` [Example 26, (R)-3-(1,4-dimethyl-1H-benzo[d][1,2,3]triazol-5-yl)-3-(3-(((R)-2-ethyl-7-hydroxy-2-methyl-2,3-dihydropyrido[2,3-f][1,4]oxazepin-4(5H)-yl)methyl)-4-methylphenyl)propanonic acid], which EC50 [1] is on record?
Its EC50 is 100 to 1000 nM.

With `CC[C@@]1(C)CN(Cc2cc([C@@H](CC(=O)O)c3ccc4c(nnn4C)c3C)ccc2C)Cc2nc(O)ccc2O1` [Example 27, (R)-3-(1,4-dimethyl-1H-benzo[d][1,2,3]triazol-5-yl)-3-(3-(((S)-2-ethyl-7-hydroxy-2-methyl-2,3-dihydropyrido[2,3-f][1,4]oxazepin-4(5H)-yl)methyl)-4-methylphenyl)propanonic acid] as the molecule, how does the EC50 [1] read?
Its EC50 is 10 to 100 nM.

`Cc1ccc([C@H](CC(=O)O)c2ccc3c(nnn3C)c2C)cc1CN1Cc2nc(O)ccc2O[C@@H](C(F)(F)F)C1` [Example 28, (S)-3-(1,4-dimethyl-1H-benzo[d][1,2,3]triazol-5-yl)-3-(3-(((R)-7-hydroxy-2-(trifluoromethyl)-2,3-dihydropyrido[2,3-f][1,4]oxazepin-4(5H)-yl)methyl)-4-methylphenyl)propanoic acid] was tested. Which EC50 [1] did it give?
Its EC50 is 1000 to 10000 nM.

`Cc1ccc([C@@H](CC(=O)O)c2ccc3c(nnn3C)c2C)cc1CN1Cc2nc(O)ccc2OC2(CCC2)C1` [Example 29] was tested. Which EC50 [1] did it give?
The EC50 was 10 to 100 nM.

How did the EC50 [1] turn out when `Cc1ccc([C@@H](CC(=O)O)c2ccc3c(nnn3C)c2C)cc1CN1Cc2nc(O)ccc2O[C@H](C(C)(C)C)C1` [Example 30, (R)-3-(3-(((R)-2-(tert-butyl)-7-hydroxy-2,3-dihydropyrido[2,3-f][1,4]oxazepin-4(5H)-yl)methyl)-4-methylphenyl)-3-(1,4-dimethyl-1H-benzo[d][1,2,3]triazol-5-yl)propanoic acid] was run?
The EC50 was 10 to 100 nM.

`CC[C@@H]1CN(Cc2cc([C@@H](c3ccc4c(nnn4C)c3C)C(C)(C)C(=O)O)ccc2C)Cc2cnccc2O1` [Example B, (S)-3-(1,4-dimethyl-1H-benzo[d][1,2,3]triazol-5-yl)-3-(3-(((R)-2-ethyl-2,3-dihydropyrido[3,4-f][1,4]oxazepin-4(5H)-yl)methyl)-4-methylphenyl)-2,2-dimethylpropanoic acid, reference compound] was tested. Which “cardiac function as assessed by ejection fraction” value (murine TAC model; daily in chow for eight weeks from 2 weeks after TAC) did it give?
The value was “full normalization of cardiac function”.

And the “NAD(P)H quinone oxidoreductase 1 (NQO1) in the LV” value (murine TAC model; daily in chow for eight weeks)?
The value was “significant dose-related elevations”.

And the “cardiac hypertrophy (left ventricular mass)” value (murine TAC model; daily in chow for eight weeks)?
The value was “did not influence cardiac hypertrophy”.

And the “unloading the heart (blood pressure) or heart rate” value (murine TAC model; daily in chow for eight weeks)?
Its value is “nor did the ejection fraction change occur by unloading the heart (i.e., lowering blood pressure) or increasing the heart rate”.
